Measured values as given in US20200253979A1, “THERAPEUTIC METHODS RELATING TO HSP90 INHIBITORS” (AI Therapeutics, Inc., priority 2017, published 2020).
Like-named read-outs stand apart in the source and are kept apart here. Each block holds one compound with its values, some of them ahead of it.

Assays:
MOLM-14 cells (FLT3-ITD) = assay: CellTiter-Glo cell viability (single agent and combination); type: cell-based; details: for IC50: Homo sapiens, MOLM-14, 72 h, 72 hours, read-out: EC50 (cell viability); for combination index (CI) of AML drug in combination with MPC-0767: MOLM-14, 72 hours, average CI (* n=1)
Procedure: HS-5 is a human marrow stromal cell line that secretes various growth factors sufficient to support hematopoietic progenitor growth (Roecklein et al., Blood, 1995) which thus mimics stromal conditions.
(§1) Three cell lines which harbor FLT3-ITD were used for the drug combination studies (MV-4-11, MOLM-13, and MOLM-14).
(§2) Cells were treated with the drugs (single agent or combination) for 72 hours. Drug combination activity was determined by first measuring cell viability with CellTiter-Glo®, followed by the calculation of the EC50 corresponding to single agent activity, using the R DRC package (R Core Team, 2017). The combination index (CI) values were computed using the Chou-Talalay method (Chou T, Cancer Research., 2010 70(2): 440-6.), based on the viability of each drug alone and in combination, across all concentrations tested. In brief, CI was defined as: […]
(§3) Loss of function mutations of KDM6A are observed in FLT3-ITD AML (Garg et al., 2015 Blood 126 (22):2491-501). […] To therapeutically exploit this finding, we hypothesized that inhibiting EZH2, the histone H3K27 methyltransferase that functionally opposes KDM6A, would enhance sensitivity to MPC-0767. To test this hypothesis, a FLT3-ITD cell line (MV-4-11) was used and treated with either of the two clinical stage EZH2 inhibitors, EPZ-6438 and CPI-1205, at 8 different concentrations for 4 days. Following this time, cells were counted, reseeded and treated with 8 concentrations of EZH2 inhibitor alone, 8 concentrations of MPC-0767 alone, or the combination of the two (64 total combinations).

MOLM-13 cells (FLT3-ITD) = assay: CellTiter-Glo cell viability (combination); type: cell-based, human; details: MOLM-13, 72 hours, average CI
Procedure: as §1, §2

[1] = system: BaF3 cells harboring FLT3-ITD; assay: CellTiter-Glo cell viability; type: cell-based, murine; details: Mus musculus, 72 hours
Procedure: After this time cell viability was determined using CTG and EC50 values determined.
(§4) EC50 values were calculated using equation 1 (as described above).
BaF3 cells require the supplementation of IL-3 to activate the IL-3 receptor for growth. However, in BaF3 cells transfected with FLT3-ITD, cells no longer require IL3 as survival is solely driven by oncogenic FLT3 signaling.

[2] = system: BaF3 cells harboring FLT3-ITD F691L; assay: CellTiter-Glo cell viability; type: cell-based, murine
Procedure: as §4

[3] = system: MOLM-13-R-PKC412 (midostaurin-resistant) cells; assay: CellTiter-Glo cell viability; type: cell-based, human
Text: (§5) In the clinic, tyrosine kinase inhibitors that target FLT3 initially show positive responses, but patients inevitably relapse due to the development of drug-resistance through various mechanisms, as discussed above.

MV-4-11 cells (FLT3-ITD) = assay: CellTiter-Glo cell viability (single agent and combination); type: cell-based; details: MV-4-11, 72 hours, average CI
Procedure: as §1, §2, §3

MOLM-13-LUC cells = assay: CellTiter-Glo cell viability; type: cell-based; details: Homo sapiens, 72 hours
Text: as §5

[4] = system: PD-1+ Jurkat reporter cells with THP-1 AML cells; assay: Jurkat NFAT-luciferase reporter T cell activation with THP-1 cells; type: cell-based; details: THP-1 treated 24 hr with IFNγ 50 ng/ml; PD-L1 blocking antibody added
Text: The addition of antibodies that block the PD-1/PD-L1 pathway stimulate an increased T cell response in vitro, in pre-clinical animal models, and in cancer patients. This can lead to tumor regressions or tumor clearance in patients. To examine MPC-0767 effects on PD-L1 and T cell activation, we used a model system in which PD-1+ Jurkat T cells express luciferase under the control of the NFAT promoter (Promega, hereafter referred to Jurkat reporter cells). When T cells are stimulated through the T cell receptor (TCR), activation of the NFAT pathway drives expression of luciferase.
We next determined whether MPC-0767 reduction of PD-L1 could increase T cell stimulation similar to anti-PD-L1 blocking antibodies. THP-1 cells were treated overnight with IFNγ in the presence or absence of MPC-0767 (1 μM or 2 uM). THP-1 cells were washed and a portion saved for flow cytometry analysis of PD-L1 expression. The remaining cells were incubated with Jurkat reporter cells and anti-CD3 (10 ng/ml) for 6 hours.

[5] = cited from earlier work
[6] = system: cell surface FLT3 in MOLM-13 cells; assay: Cell surface FLT3 by flow cytometry; type: cell-based, human; details: MOLM-13; MPC-0767 800 nM, ATO 625 nM or combination; 24 hours
Procedure: (§6) To determine whether MPC-0767 can promote the degradation of FLT3-ITD and abolish downstream signaling, MV-4-11 and MOLM-13 cells were treated with vehicle or MPC-0767 (1 μM) for 24 hours. Cells were harvested for flow cytometry to assess cell surface FLT3 protein abundance. In addition, the measurement of a key phosphorylation site of S6 (phospho-S6) was used as a marker for oncogenic FLT3-ITD signaling (Zimmerman et al., Blood. 2013 122(22): 3607-3615). Indeed, in both MV-4-11 and MOLM-13 cells treated with MPC-0767 there was a >65% reduction in cell surface FLT3 (FIGS. 10A and 10B, respectively) and >70% reduction in phospho-S6 (FIGS. 10C and 10D, respectively).
(§7) We next explored whether the synergistic activity of MPC-0767 and ATO was due to a more complete abrogation of FLT3-ITD oncogenic signaling. […] After this time cells were harvested for the assessment of cell surface FLT3 expression by flow cytometry. To additionally measure the effects of abrogating FLT3, we assessed phospho-ERK (pERK) and phospho-S6 (pS6), as these are two known downstream effectors.

[7] = system: phospho-S6 in MOLM-13 cells; assay: Phospho-S6 by flow cytometry; type: cell-based, human; details: MOLM-13; MPC-0767 800 nM, ATO 625 nM or combination; 24 hours
Procedure: as §6, §7

[8] = system: phospho-ERK (pERK) in MOLM-13 cells; assay: Phospho-ERK level; type: cell-based, human; details: MPC-0767 800 nM, ATO 625 nM or combination, 24 hours
Text: as §7

[9] = system: MOLM-13 FLT3-ITD AML cell line; assay: Systemic survival xenograft study, MPC-0767 with 5′azacitidine; details: single agents: MPC-0767 75 mg/kg p.o.; 5′azacitidine 2 mg/kg QD×4 i.p.; vs vehicle
Procedure: A systemic survival xenograft study was performed using the MOLM-13 FLT3-ITD harboring AML cell line.
Before tumor cell inoculation, NOD/SCID mice were pre-treated for 2 days with a daily intraperitoneal injection of 100 mg/kg cyclophosphamide to facilitate engraftment of the human MOLM-13 tumor cells. After the injection of cyclophosphamide, the animals were allowed to recover for 24 hours prior to inoculation with human MOLM-13 tumor cells. Each mouse was then inoculated with 1×10^7 MOLM-13 cells in 100 μL PBS via intravenous tail vein injection. Mice were next randomized into 4 groups of 6 mice each. […] Viability and body weight loss were monitored daily.

[10] = MOLM-14, stromal media (HS-5 conditioned)

- IC50 (MOLM-14 cells (FLT3-ITD); MOLM-14, non-stromal media): 6 nM
- IC50 (MOLM-14 cells (FLT3-ITD); [10]): > 100 nM
Compound: CCc1nc(C(N)=O)c(Nc2ccc(N3CCC(N4CCN(C)CC4)CC3)c(OC)c2)nc1NC1CCOCC1 [gilteritinib]
- combination index (CI) of AML drug in combination with MPC-0767 (MOLM-13 cells (FLT3-ITD)): CI = 0.9

- EC50 [1]: 4 nM
- EC50 ([2]; Mus musculus, BaF3 FLT3-ITD-F691L, 72 hours): 90 nM
- IC50 (MOLM-14 cells (FLT3-ITD); MOLM-14, non-stromal media): 3 nM
- IC50 (MOLM-14 cells (FLT3-ITD); [10]): > 100 nM
- EC50 ([3]; Homo sapiens, MOLM-13-R-PKC412, 72 hours): 25 nM
- fold difference in EC50, midostaurin-resistant vs control cells ([3]; MOLM-13-R-PKC412 vs MOLM-13-LUC): approximately 3 fold
- EC50 (MOLM-13-LUC cells): 9 nM
Compound: CC1(COc2ccc3c(c2)ncn3-c2ccc3cccc(N4CCC(N)CC4)c3n2)COC1 [crenolanib]
- fold resistance, FLT3-ITD-F691L vs FLT3-ITD ([2]; BaF3, 72 hours): approximately 23 fold
- combination index (CI) of AML drug in combination with MPC-0767 (MOLM-13 cells (FLT3-ITD)): CI = 0.9
- combination index (CI) of AML drug in combination with MPC-0767 (MV-4-11 cells (FLT3-ITD)): CI = 0.7

Compound: atezolizulmab: PD-L1 blocking antibody
- T cell activation (luciferase) [4]: restores T cell activation to untreated levels

Compound: Nc1ccn([C@@H]2O[C@H](CO)[C@@H](O)[C@@H]2O)c(=O)n1 [Cytarabine, cytarabine]
- combination index (CI) of AML drug in combination with MPC-0767 (MOLM-14 cells (FLT3-ITD)): CI = 0.9*
- combination index (CI) of AML drug in combination with MPC-0767 (MV-4-11 cells (FLT3-ITD)): CI = 0.8

Compound: C[C@H](O)C(=O)N1CCC(CCn2c(Sc3cc4c(cc3Br)OCO4)nc3c(N)ncnc32)CC1 [MPC-3100, (2S)-1-[4-(2-{6-Amino-8-[(6-bromo-1,3-benzodioxol-5-yl)sulfanyl]-9H-purin-9-yl}ethyl)piperidin-1-yl]-2-hydroxypropan-1-one, reference compound]
- aqueous solubility [5]: poor solubility

Compound: CNC(=O)c1cc(Oc2ccc(NC(=O)Nc3ccc(Cl)c(C(F)(F)F)c3)cc2)ccn1 [Sorafenib, sorafenib]
- combination index (CI) of AML drug in combination with MPC-0767 (MV-4-11 cells (FLT3-ITD)): CI = 0.8

Compound: arsenic trioxide [ATO, reference compound]
- FLT3 level (cell surface) [6]: reduced
- pS6 level [7]: reduced
- pERK level [8]: mildly reduced

Compound: Nc1ncn([C@@H]2O[C@H](CO)[C@@H](O)[C@H]2O)c(=O)n1 [5′azacitidine, reference compound]
- increase in median survival [9]: 8 days

Compound: CC1(C)CCC(CN2CCN(c3ccc(C(=O)NS(=O)(=O)c4ccc(NCC5CCOCC5)c([N+](=O)[O-])c4)c(Oc4cnc5[nH]ccc5c4)c3)CC2)=C(c2ccc(Cl)cc2)C1 [Venetoclax, venetoclax]
- combination index (CI) of AML drug in combination with MPC-0767 (MOLM-14 cells (FLT3-ITD)): CI = 0.6
- combination index (CI) of AML drug in combination with MPC-0767 (MOLM-13 cells (FLT3-ITD)): CI = 0.3
- combination index (CI) of AML drug in combination with MPC-0767 (MOLM-13 cells (FLT3-ITD); listed as venetoclax): 0.3
- combination index (CI) of AML drug in combination with MPC-0767 (MV-4-11 cells (FLT3-ITD)): CI = 0.7
- combination index (CI) of AML drug in combination with MPC-0767 (MV-4-11 cells (FLT3-ITD); listed as venetoclax): 0.7
